Experimental data from ChEMBL document CHEMBL1135692, “Structure-activity relationships of the melanocortin tetrapeptide Ac-His-D-Phe-Arg-Trp-NH2 at the mouse melanocortin receptors. 4. Modifications at the Trp position” (J Med Chem, 2002).

Key:
Format in all cases: cell-based
Melanocortin receptor 4 = Melanocortin receptor 4 (Mus musculus, UniProt P56450); assay: Activity in mouse melanocortin-4 receptor stably expressed in HEK293 cells
Melanocortin receptor 5 = Melanocortin receptor 5 (Mus musculus, UniProt P41149); assay: Activity in mouse melanocortin-5 receptor stably expressed in HEK293 cells
Melanocortin receptor 3 = Melanocortin receptor 3 (Mus musculus, UniProt P33033); assay: Activity in mouse melanocortin-3 receptor (mMC3R) stably expressed in HEK293 cells
[1] = target: Melanocyte-stimulating hormone receptor (Mus musculus, UniProt Q01727); assay: Activity in mouse melanocortin-1 receptor stably expressed in HEK293 cells
Chain of Melanocyte-stimulating hormone receptor (Q01727 whole entry): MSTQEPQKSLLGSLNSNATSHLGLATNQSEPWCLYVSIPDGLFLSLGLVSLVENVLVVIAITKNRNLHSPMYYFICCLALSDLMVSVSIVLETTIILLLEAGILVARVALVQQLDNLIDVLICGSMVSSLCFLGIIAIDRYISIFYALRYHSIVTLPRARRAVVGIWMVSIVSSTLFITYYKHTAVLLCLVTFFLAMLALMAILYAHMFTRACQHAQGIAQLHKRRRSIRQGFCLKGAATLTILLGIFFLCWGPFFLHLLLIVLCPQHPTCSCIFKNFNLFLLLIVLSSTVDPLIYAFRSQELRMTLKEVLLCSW

Chain of Melanocortin receptor 4 (P56450 whole entry): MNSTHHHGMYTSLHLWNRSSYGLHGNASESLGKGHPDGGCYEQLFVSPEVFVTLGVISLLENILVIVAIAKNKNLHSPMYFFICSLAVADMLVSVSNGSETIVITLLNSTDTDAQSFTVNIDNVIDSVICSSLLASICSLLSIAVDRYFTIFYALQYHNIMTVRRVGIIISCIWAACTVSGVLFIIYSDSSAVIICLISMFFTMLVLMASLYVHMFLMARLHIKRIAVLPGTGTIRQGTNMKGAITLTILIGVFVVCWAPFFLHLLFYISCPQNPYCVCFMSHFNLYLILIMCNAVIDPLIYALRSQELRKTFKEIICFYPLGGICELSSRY
Chain of Melanocortin receptor 5 (P41149 whole entry): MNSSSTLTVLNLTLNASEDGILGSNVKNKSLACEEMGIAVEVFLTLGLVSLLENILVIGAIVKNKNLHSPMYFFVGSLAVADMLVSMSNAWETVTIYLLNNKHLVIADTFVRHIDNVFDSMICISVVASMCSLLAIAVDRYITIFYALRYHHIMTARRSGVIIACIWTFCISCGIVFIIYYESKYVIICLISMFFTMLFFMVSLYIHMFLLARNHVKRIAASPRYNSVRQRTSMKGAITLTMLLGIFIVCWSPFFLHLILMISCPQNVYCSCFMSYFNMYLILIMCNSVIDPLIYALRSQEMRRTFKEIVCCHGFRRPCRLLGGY
Chain of Melanocortin receptor 3 (P33033 whole entry): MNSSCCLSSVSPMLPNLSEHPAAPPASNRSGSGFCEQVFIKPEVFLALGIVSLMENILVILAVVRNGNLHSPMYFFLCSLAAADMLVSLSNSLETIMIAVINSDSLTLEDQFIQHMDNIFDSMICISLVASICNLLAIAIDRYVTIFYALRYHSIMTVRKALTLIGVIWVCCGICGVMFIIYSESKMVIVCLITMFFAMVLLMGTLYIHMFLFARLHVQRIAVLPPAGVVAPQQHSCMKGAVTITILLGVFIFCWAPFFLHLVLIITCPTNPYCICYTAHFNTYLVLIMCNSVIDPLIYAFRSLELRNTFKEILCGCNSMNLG

EC50 (Melanocortin receptor 4) | EC50 (Melanocortin receptor 5) | EC50 (Melanocortin receptor 3) | EC50 [1] | EC50 (Melanocortin receptor 4; hek293) | EC50 (Melanocortin receptor 5; hek293) | SMILES
240 nM | 35.3 nM | – | – | – | – | CC(=O)N[C@@H](Cc1cnc[nH]1)C(=O)N[C@H](Cc1ccccc1)C(=O)N[C@@H](CCCN=C(N)N)C(=O)NC(Cc1c[nH]c2ccccc12)C(N)=O (stereo in doubt)
– | – | 3700 nM | – | – | – | CC(=O)N[C@@H](Cc1cnc[nH]1)C(=O)NC(Cc1ccccc1)C(=O)N[C@@H](CCCNC(=N)N)C(=O)N[C@H](Cc1csc2ccccc12)C(N)=O (stereo in doubt) [listing 1 of 2 here]
– | – | > 100000 nM | – | – | – | CC(=O)N[C@@H](Cc1cnc[nH]1)C(=O)NC(Cc1ccccc1)C(=O)N[C@@H](CCCNC(=N)N)C(=O)N[C@H](Cc1cnc[nH]1)C(N)=O (stereo in doubt) [listing 1 of 2 here]
– | – | 3500 nM | – | – | – | CC(=O)N[C@@H](Cc1cnc[nH]1)C(=O)NC(Cc1ccccc1)C(=O)N[C@@H](CCCNC(=N)N)C(=O)N[C@H](Cc1cccc2ccccc12)C(N)=O (stereo in doubt) [listing 1 of 2 here]
8120 nM | 850 nM | – | 2780 nM | – | – | CC(=O)N[C@@H](Cc1cnc[nH]1)C(=O)NC(Cc1ccccc1)C(=O)N[C@@H](CCCNC(=N)N)C(=O)N[C@H](Cc1cccs1)C(N)=O (stereo in doubt) [listing 1 of 2 here]
143 nM | 47.7 nM | – | 79.9 nM | – | – | CC(=O)N[C@@H](Cc1cnc[nH]1)C(=O)NC(Cc1ccccc1)C(=O)N[C@@H](CCCNC(=N)N)C(=O)N[C@H](Cc1csc2ccccc12)C(N)=O (stereo in doubt) [listing 2 of 2 here]
– | – | 30200 nM | – | – | – | CC(=O)N[C@@H](Cc1cnc[nH]1)C(=O)NC(Cc1ccccc1)C(=O)N[C@@H](CCCNC(=N)N)C(=O)N[C@H](Cc1cccs1)C(N)=O (stereo in doubt) [listing 2 of 2 here]
260 nM | 33.1 nM | – | 730 nM | – | – | CC(=O)N[C@@H](Cc1cnc[nH]1)C(=O)NC(Cc1ccccc1)C(=O)N[C@@H](CCCNC(=N)N)C(=O)N[C@H](Cc1cccc2ccccc12)C(N)=O (stereo in doubt) [listing 2 of 2 here]
30000 nM | 14500 nM | – | 2240 nM | – | – | CC(=O)N[C@@H](Cc1cnc[nH]1)C(=O)NC(Cc1ccccc1)C(=O)N[C@@H](CCCNC(=N)N)C(=O)N[C@H](Cc1ccncc1)C(N)=O (stereo in doubt) [listing 1 of 2 here]
– | – | 21900 nM | – | – | – | CC(=O)N[C@@H](Cc1cnc[nH]1)C(=O)NC(Cc1ccccc1)C(=O)N[C@@H](CCCNC(=N)N)C(=O)N[C@@H](Cc1cccc2ccccc12)C(N)=O (stereo in doubt) [listing 1 of 2 here]
– | – | – | – | 17.2 nM | 3.96 nM | CC(=O)N[C@@H](Cc1cnc[nH]1)C(=O)NC(Cc1ccccc1)C(=O)N[C@@H](CCCNC(=N)N)C(=O)NC(Cc1c[nH]c2ccccc12)C(N)=O (stereo in doubt)
1500 nM | 150 nM | – | 310 nM | – | – | CC(=O)N[C@@H](Cc1cnc[nH]1)C(=O)NC(Cc1ccccc1)C(=O)N[C@@H](CCCNC(=N)N)C(=O)N[C@@H](Cc1ccc(-c2ccccc2)cc1)C(N)=O (stereo in doubt) [listing 1 of 2 here]
– | – | > 100000 nM | – | – | – | CC(=O)N[C@@H](Cc1cnc[nH]1)C(=O)NC(Cc1ccccc1)C(=O)N[C@@H](CCCNC(=N)N)C(=O)N[C@H](Cc1ccncc1)C(N)=O (stereo in doubt) [listing 2 of 2 here]
– | – | 16200 nM | – | – | – | CC(=O)N[C@@H](Cc1cnc[nH]1)C(=O)NC(Cc1ccccc1)C(=O)N[C@@H](CCCNC(=N)N)C(=O)N[C@@H](Cc1ccc(-c2ccccc2)cc1)C(N)=O (stereo in doubt) [listing 2 of 2 here]
7800 nM | 7440 nM | – | 680 nM | – | – | CC(=O)N[C@@H](Cc1cnc[nH]1)C(=O)NC(Cc1ccccc1)C(=O)N[C@@H](CCCNC(=N)N)C(=O)NC(C(N)=O)C(c1ccccc1)c1ccccc1 (stereo in doubt) [listing 1 of 2 here]
5400 nM | 750 nM | – | 750 nM | – | – | CC(=O)N[C@@H](Cc1cnc[nH]1)C(=O)NC(Cc1ccccc1)C(=O)N[C@@H](CCCNC(=N)N)C(=O)N[C@@H](Cc1cccc2ccccc12)C(N)=O (stereo in doubt) [listing 2 of 2 here]
27600 nM | 36000 nM | – | 3800 nM | – | – | CC(=O)N[C@@H](Cc1cnc[nH]1)C(=O)NC(Cc1ccccc1)C(=O)N[C@@H](CCCNC(=N)N)C(=O)N[C@H](Cc1cnc[nH]1)C(N)=O (stereo in doubt) [listing 2 of 2 here]
– | – | 27000 nM | – | – | – | CC(=O)N[C@@H](Cc1c[nH]cn1)C(=O)N[C@@H](Cc1ccccc1)C(=O)N[C@@H](CCCN=C(N)N)C(=O)N[C@H](Cc1ccccc1)C(N)=O
– | – | 16000 nM | – | – | – | CC(=O)N[C@@H](Cc1cnc[nH]1)C(=O)NC(Cc1ccccc1)C(=O)N[C@@H](CCCNC(=N)N)C(=O)NC(C(N)=O)C(c1ccccc1)c1ccccc1 (stereo in doubt) [listing 2 of 2 here]

The remaining lines, values behind:

SMILES | EC50 (Melanocortin receptor 4) | EC50 (Melanocortin receptor 5) | EC50 (Melanocortin receptor 3) | EC50 [1] | EC50 (Melanocortin receptor 4; hek293) | EC50 (Melanocortin receptor 5; hek293)
CC(=O)N[C@@H](Cc1c[nH]cn1)C(=O)NC(Cc1ccccc1)C(=O)N[C@@H](CCCN=C(N)N)C(=O)NC(Cc1ccc2ccccc2c1)C(N)=O (stereo in doubt) [listing 1 of 2 here] | – | – | 1620 nM | – | – | –
CC(=O)N[C@@H](Cc1c[nH]cn1)C(=O)N[C@@H](Cc1ccccc1)C(=O)N[C@@H](CCCN=C(N)N)C(=O)N[C@@H](C(N)=O)C(c1ccccc1)c1ccccc1 | – | – | 53300 nM | – | – | –
CC(=O)N[C@@H](Cc1cnc[nH]1)C(=O)N[C@H](Cc1ccccc1)C(=O)N[C@@H](CCCN=C(N)N)C(=O)N1Cc2ccccc2C[C@@H]1C(N)=O | 39400 nM | 24800 nM | > 100000 nM | 1500 nM | – | –
CC(=O)N[C@@H](Cc1c[nH]cn1)C(=O)NC(Cc1ccccc1)C(=O)N[C@@H](CCCN=C(N)N)C(=O)NC(Cc1ccccc1)C(N)=O (stereo in doubt) [listing 1 of 2 here] | 1000 nM | 470 nM | – | 2500 nM | – | –
CC(=O)N[C@@H](Cc1c[nH]cn1)C(=O)NC(Cc1ccccc1)C(=O)N[C@@H](CCCN=C(N)N)C(=O)N[C@H](Cc1ccc(-c2ccccc2)cc1)C(N)=O (stereo in doubt) [listing 1 of 2 here] | – | – | 13400 nM | – | – | –
CC(=O)N[C@@H](Cc1c[nH]cn1)C(=O)NC(Cc1ccccc1)C(=O)N[C@@H](CCCN=C(N)N)C(=O)N[C@H](Cc1ccc2ccccc2c1)C(N)=O (stereo in doubt) [listing 1 of 2 here] | 15.8 nM | 4.86 nM | – | 17.9 nM | – | –
CC(=O)N[C@@H](Cc1c[nH]cn1)C(=O)NC(Cc1ccccc1)C(=O)N[C@@H](CCCN=C(N)N)C(=O)N[C@H](Cc1ccc2ccccc2c1)C(N)=O (stereo in doubt) [listing 2 of 2 here] | – | – | 740 nM | – | – | –
CC(=O)N[C@@H](Cc1c[nH]cn1)C(=O)N[C@H](Cc1ccccc1)C(=O)N[C@@H](CCCN=C(N)N)C(=O)N[C@@H](Cc1ccccc1)C(N)=O | 7800 nM | 890 nM | – | 530 nM | – | –
CC(=O)N[C@@H](Cc1c[nH]cn1)C(=O)N[C@H](Cc1ccccc1)C(=O)N[C@@H](CCCN=C(N)N)C(=O)N[C@H](C(N)=O)C(c1ccccc1)c1ccccc1 | 11600 nM | 7100 nM | – | 2300 nM | – | –
CC(=O)N[C@@H](Cc1c[nH]cn1)C(=O)NC(Cc1ccccc1)C(=O)N[C@@H](CCCN=C(N)N)C(=O)NC(Cc1ccccc1)C(N)=O (stereo in doubt) [listing 2 of 2 here] | – | – | 15000 nM | – | – | –
CC(=O)N[C@@H](Cc1cnc[nH]1)C(=O)N[C@H](Cc1ccccc1)C(=O)N[C@@H](CCCN=C(N)N)C(=O)N1Cc2ccccc2C[C@H]1C(N)=O | 8500 nM | 700 nM | 23200 nM | 43 nM | – | –
CC(=O)N[C@@H](Cc1c[nH]cn1)C(=O)N[C@H](Cc1ccccc1)C(=O)N[C@@H](CCCN=C(N)N)C(=O)N[C@@]1(C(N)=O)CCc2ccccc2C1 (stereo in doubt; 21) | 8800 nM | 960 nM | 33500 nM | 680 nM | – | –
CC(=O)N[C@@H](Cc1c[nH]cn1)C(=O)NC(Cc1ccccc1)C(=O)N[C@@H](CCCN=C(N)N)C(=O)N[C@H](Cc1ccc(-c2ccccc2)cc1)C(N)=O (stereo in doubt) [listing 2 of 2 here] | 2700 nM | 100 nM | – | 51.9 nM | – | –
CC(=O)N[C@@H](Cc1c[nH]cn1)C(=O)NC(Cc1ccccc1)C(=O)N[C@@H](CCCN=C(N)N)C(=O)NC(Cc1ccc2ccccc2c1)C(N)=O (stereo in doubt) [listing 2 of 2 here] | 46.2 nM | 12.1 nM | – | 127 nM | – | –
CC(=O)N[C@@H](Cc1c[nH]cn1)C(=O)N[C@H](Cc1ccccc1)C(=O)N[C@@H](CCCN=C(N)N)C(=O)N[C@@H](C)C(N)=O | 43700 nM | 38400 nM | > 100000 nM | 4400 nM | – | –
CC(=O)N[C@@H](Cc1c[nH]cn1)C(=O)N[C@H](Cc1ccccc1)C(=O)N[C@@H](CCCN=C(N)N)C(=O)N[C@@]1(C(N)=O)CCc2ccccc2C1 (stereo in doubt; 20) | 3460 nM | 180 nM | 9900 nM | 700 nM | – | –
